Each block holds one compound with its values, some of them ahead of it.
Target: T1, AdipoR1 (Homo sapiens, UniProt Q96A54)
T1 sequence (Q96A54 1-375): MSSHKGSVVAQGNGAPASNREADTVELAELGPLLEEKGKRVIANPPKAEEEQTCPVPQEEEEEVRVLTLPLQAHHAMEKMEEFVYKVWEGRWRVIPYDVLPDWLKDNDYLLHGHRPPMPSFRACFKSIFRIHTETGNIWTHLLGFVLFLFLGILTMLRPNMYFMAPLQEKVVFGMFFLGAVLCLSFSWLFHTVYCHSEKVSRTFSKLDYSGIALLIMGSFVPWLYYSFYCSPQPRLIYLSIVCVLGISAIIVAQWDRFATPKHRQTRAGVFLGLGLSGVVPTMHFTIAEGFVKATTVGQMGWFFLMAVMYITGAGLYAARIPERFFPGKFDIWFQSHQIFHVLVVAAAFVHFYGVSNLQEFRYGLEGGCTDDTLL
Assay: Measurement of AMPK phosphorylation ability (Assay 1), HEK 293T cells, Western blotting
Assay type: cell-based
Parameters: HEK 293T cells (ATCC; CRL-3216, medium; host or cells: HEK 293T
Conditions: 10 minutes
Procedure: The AMPK phosphorylation ability of the respective compounds according to the present invention was measured by using differentiated C2C12 cells or HEK 293T cells.
HEK 293T cells (ATCC; CRL-3216, medium; DMEM, Fetal Bovine Serum (FBS)) were cultured in a 12- or 24-well plate until they reached 100% confluency (37° C., 5% CO2).
After starvation, a test compound listed in Tables 10 and 11 (concentration: 25 μM, 50 μM) was added thereto, and after 10 minutes, the medium was discarded and the plate was frozen with liquid nitrogen.
To the 12- or 24-well cell plate which had been frozen was added 100 or 150 μL of Cell lysis buffer pH 7.4 (50 mM HEPES (pH 7.4), 2 mM sodium orthovanadate, 10 mM sodium pyrophosphate, 10 mM NaF, 2 mM EDTA, 2 mM EGTA, 0.1% (v/v) NP-40, 0.2 mM PMSF), and the cells were scraped off with a cell scraper, suspended and transferred into a micro centrifugal tube. And then, the cells were ultrasonically crushed (1 second×3 times) with a sonicator. Centrifugation was performed at 4° C. at 15,000 rpm for 15 minutes, and the supernatant was recovered into a new tube.
To 100 μL of the supernatant was added 25 μL of 5× sample buffer (280 mM Tris-HCl (pH 6.9), 40% glycerol, 10% (3-mercaptoethanol, 13% SDS, a small amount of bromophenol blue) and mixed together. The rest of the supernatant was used for protein quantification, and the protein concentrations were uniformed by adding 1× sample buffer depending on the concentration of each sample.
An electrophoresis chamber was filled with 1× SDS buffer (25 mM Tris-HCl, 250 mM glycine, 0.1% SDS), and the sample was applied to a well of polyacrylamide gel. Electrophoresis was performed until the bromophenol blue in the sample reached to the bottom of the gel.
A filter paper was soaked in 1× Transfer buffer sufficiently, above which the PVDF membrane and the gel after electrophoresis were stacked in this order, and thereabove a filter paper which had been soaked in 1× Transfer buffer sufficiently was further stacked, from which an air was removed and the resultant was set in semi-dry type transfer apparatus and transferred (7V, 35 minutes).
An unnecessary portion of the blotted membrane was cutoff, and the rest was immediately soaked in blocking buffer (5% skimmed milk in Rinse buffer), and shaken at room temperature at 40 rpm for 3 hours.
After blocking, the membrane was transferred into Rinse buffer, and washed at room temperature for 10 minutes while shaking. The membrane was soaked in a primary antibody solution (AMPK alpha Antibody (Cell signaling; #2532) 1/1,000 in Rinse buffer, Phospho-AMPK alpha (Thr172) (40H9) antibody (Cell signaling; #2535) 1/1,000 in Rinse buffer), and shaken at 4° C. at 40 rpm overnight.
The membrane was soaked in a secondary antibody solution (goat anti-rabbit IgG-HRP Antibody (Santa Cruz; sc-2030) 1/2,000 in Rinse buffer), and shaken at room temperature at 40 rpm for 1 hour.
After the membrane was washed for 45 minutes in the same way as after the primary antibody reaction, the membrane was soaked in a chemiluminescent reaction solution (ECL Western Blotting Detection Reagents, GE Healthcare) for about 1 minute. An excess of the reaction solution was removed, and then the membranes were arranged on a transparent film and sandwiched with it, with which an X-ray film was exposed in a darkroom (for about several seconds to 60 seconds) to develop the film.
The X-ray film was scanned to take the image, for which the band was measured by using the image analysis software “Image J” to determine the respective amounts of pAMPK and AMPK.

pAMPK/AMPK (%) (25 μM): 30.26%
pAMPK/AMPK (%) (50 μM): 45.31%
SMILES: COc1ccccc1CN1CCN(C(=O)CCNC(=O)c2ccc(Cl)cc2)CC1 [Compound 57]

pAMPK/AMPK (%) (25 μM): 72.75%
pAMPK/AMPK (%) (50 μM): 80.92%
SMILES: COc1ccc(CN2CCN(C(=O)CCNC(=O)c3ccc(F)cc3F)CC2)cc1OC [Compound 62]

pAMPK/AMPK (%) (25 μM): 55.06%
pAMPK/AMPK (%) (50 μM): 56.65%
SMILES: CC1CN(Cc2ccccc2)CCC1NC(=O)COc1ccc(N2CCCC2=O)cc1 (stereo not shown) [Compound 26]

pAMPK/AMPK (%) (25 μM): 34.44%
pAMPK/AMPK (%) (50 μM): 76.81%
SMILES: COc1ccc(CN2CCN(C(=O)CCNC(=O)c3ccc(Cl)cc3)CC2)c(OC)c1OC [Compound 60]

pAMPK/AMPK (%) (25 μM): 42.05%
pAMPK/AMPK (%) (50 μM): 46.92%
SMILES: COc1cccc(C(=O)N2CCN(CCC(=O)NC3CC3)CC2)c1 [Compound 72]

pAMPK/AMPK (%) (25 μM): 57.51%
pAMPK/AMPK (%) (50 μM): 33.78%
SMILES: O=C(NCCC(=O)N1CCN(Cc2cccc(O)c2)CC1)c1ccc(Cl)cc1 [Compound 54]

pAMPK/AMPK (%) (25 μM): 40.07%
pAMPK/AMPK (%) (50 μM): 42.87%
SMILES: O=C(COc1ccc(N2CCCC2=O)cc1)NC1CCN(C(=O)c2ccccc2F)CC1 [Compound 25]

pAMPK/AMPK (%) (25 μM): 72.14%
pAMPK/AMPK (%) (50 μM): 78.77%
SMILES: CCCOc1ccc(OCC(=O)NC2CCN(C(=O)c3ccc(OCC)cc3)CC2)cc1 [Compound 44]

pAMPK/AMPK (%) (25 μM): 41.20%
pAMPK/AMPK (%) (50 μM): 62.58%
SMILES: COc1ccccc1CN1CCN(C(=O)CCNC(=O)c2ccc(Br)cc2)CC1 [Compound 58]

pAMPK/AMPK (%) (25 μM): 77.13%
pAMPK/AMPK (%) (50 μM): 82.95%
SMILES: CCCOc1ccc(OCC(=O)NC2CCN(C(C)c3ccccc3)CC2)cc1 (stereo not shown) [Compound 43]

pAMPK/AMPK (%) (25 μM): 78.18%
pAMPK/AMPK (%) (50 μM): 65.40%
SMILES: COc1ccccc1CN1CCN(C(=O)CCNC(=O)c2ccc3ccccc3c2)CC1 [Compound 71]

pAMPK/AMPK (%) (25 μM): 53.92%
pAMPK/AMPK (%) (50 μM): 45.94%
SMILES: COc1ccc(CN2CCN(C(=O)CCNC(=O)c3ccc([N+](=O)[O-])cc3)CC2)cc1F [Compound 68]

pAMPK/AMPK (%) (25 μM): 49.23%
pAMPK/AMPK (%) (50 μM): 40.38%
SMILES: O=C(NCCC(=O)N1CCN(Cc2cccc(O)c2)CC1)c1ccc(Br)cc1 [Compound 56]

pAMPK/AMPK (%) (25 μM): 62.79%
pAMPK/AMPK (%) (50 μM): 69.84%
SMILES: COc1ccc(CN2CCN(C(=O)CCNC(=O)c3ccc([N+](=O)[O-])cc3)CC2)cc1 [Compound 65]

pAMPK/AMPK (%) (25 μM): 70.98%
pAMPK/AMPK (%) (50 μM): 70.70%
SMILES: O=C(NCCC(=O)N1CCN(Cc2cccc(C(F)(F)F)c2)CC1)c1ccc([N+](=O)[O-])cc1 [Compound 67]

pAMPK/AMPK (%) (25 μM): 42.40%
pAMPK/AMPK (%) (50 μM): 34.07%
SMILES: COc1ccccc1CN1CCN(C(=O)CCNC(=O)c2ccccc2C)CC1 [Compound 49]

pAMPK/AMPK (%) (25 μM): 67.44%
pAMPK/AMPK (%) (50 μM): 82.01%
SMILES: O=C(COc1ccc(Oc2ccccn2)cc1)NC1CCN(Cc2ccccc2)CC1 [Compound 45]

pAMPK/AMPK (%) (25 μM): 45.54%
pAMPK/AMPK (%) (50 μM): 37.30%
SMILES: CCOc1ccc(C(=O)N2CCC(NC(=O)COc3ccc(N4CCCC4=O)cc3)CC2)cc1 [Compound 27]

pAMPK/AMPK (%) (25 μM): 64.98%
pAMPK/AMPK (%) (50 μM): 61.18%
SMILES: CCOc1ccc(OCC(=O)NC2CCN(Cc3ccccc3C)CC2)cc1 [Compound 39]

pAMPK/AMPK (%) (25 μM): 74.09%
pAMPK/AMPK (%) (50 μM): 78.14%
SMILES: COc1ccc(CN2CCN(C(=O)CCNC(=O)c3ccc(Br)cc3)CC2)cc1OC [Compound 59]

pAMPK/AMPK (%) (25 μM): 65.40%
pAMPK/AMPK (%) (50 μM): 68.22%
SMILES: Cc1ccccc1CN1CCN(C(=O)CCNC(=O)c2ccc([N+](=O)[O-])cc2)CC1 [Compound 63]

pAMPK/AMPK (%) (25 μM): 62.03%
pAMPK/AMPK (%) (50 μM): 69.38%
SMILES: CCCOc1ccc(OCC(=O)NC2CCN(Cc3ccccc3)C(C)C2)cc1 (stereo not shown) [Compound 41]

More lines, now with the values behind:

SMILES: CCC(=O)c1ccc(OCC(=O)NC2CCN(Cc3ccc(Cl)c(Cl)c3)CC2)cc1 [Compound 17]
pAMPK/AMPK (%) (25 μM): 88.72%
pAMPK/AMPK (%) (50 μM): 75.82%

SMILES: CCOc1ccc(C(=O)N2CCC(NC(=O)COc3ccc([N+](=O)[O-])cc3)CC2)cc1 [Compound 22]
pAMPK/AMPK (%) (25 μM): 61.45%
pAMPK/AMPK (%) (50 μM): 67.26%

SMILES: CCC(=O)c1ccc(OCC(=O)NC2CCN(Cc3ccccc3)CC2C)cc1 (stereo not shown) [Compound 18]
pAMPK/AMPK (%) (25 μM): 59.58%
pAMPK/AMPK (%) (50 μM): 72.81%

SMILES: CC(=O)c1ccc(OCC(=O)NC2CCN(Cc3ccccc3)CC2C)cc1 (stereo not shown) [Compound 14]
pAMPK/AMPK (%) (25 μM): 63.62%
pAMPK/AMPK (%) (50 μM): 51.87%

SMILES: CC(c1ccccc1)N1CCC(NC(=O)COc2ccc(C(F)(F)F)cc2)CC1 (stereo not shown) [Compound 9]
pAMPK/AMPK (%) (25 μM): 23.69%
pAMPK/AMPK (%) (50 μM): 62.46%

SMILES: COc1ccc(CN2CCC(NC(=O)COc3ccc([N+](=O)[O-])cc3)CC2)cc1F [Compound 24]
pAMPK/AMPK (%) (25 μM): 23.68%
pAMPK/AMPK (%) (50 μM): 60.46%

SMILES: Cc1ccc(C(=O)N2CCC(NC(=O)COc3ccc(C(F)(F)F)cc3)CC2)cc1 [Compound 8]
pAMPK/AMPK (%) (25 μM): 77.49%
pAMPK/AMPK (%) (50 μM): 72.23%

SMILES: CCC(=O)c1ccc(OCC(=O)NC2CCN(Cc3ccccc3C)CC2)cc1 [Compound 16]
pAMPK/AMPK (%) (25 μM): 55.49%
pAMPK/AMPK (%) (50 μM): 46.30%

SMILES: CCc1ccc(OCC(=O)NC2CCN(Cc3ccc(OC)c(F)c3)CC2)cc1 [Compound 5]
pAMPK/AMPK (%) (25 μM): 69.72%
pAMPK/AMPK (%) (50 μM): 62.88%

SMILES: CC(C)(C)c1ccc(OCC(=O)NC2CCN(Cc3ccc(F)cc3)CC2)cc1 [Compound 6]
pAMPK/AMPK (%) (25 μM): 24.57%
pAMPK/AMPK (%) (50 μM): 60.56%

SMILES: NC(=O)c1ccc(OCC(=O)NC2CCN(Cc3ccc(F)c(F)c3)CC2)cc1 [Compound 20]
pAMPK/AMPK (%) (25 μM): 47.30%
pAMPK/AMPK (%) (50 μM): 60.30%

SMILES: CC(c1ccccc1)N1CCC(NC(=O)COc2ccc(-c3ccccc3)cc2)CC1 (stereo not shown) [Compound 7]
pAMPK/AMPK (%) (25 μM): 79.86%
pAMPK/AMPK (%) (50 μM): 94.13%

SMILES: Cc1cc(OCC(=O)NC2CCN(C(N)=O)CC2)ccc1C(C)C [Compound 3]
pAMPK/AMPK (%) (25 μM): 39.02%
pAMPK/AMPK (%) (50 μM): 44.32%

SMILES: COc1ccccc1CN1CCC(NC(=O)COc2ccc(C)cc2)CC1 [Compound 4]
pAMPK/AMPK (%) (25 μM): 47.44%
pAMPK/AMPK (%) (50 μM): 45.44%

SMILES: Cc1ccccc1CN1CCC(NC(=O)COc2ccc(C(C)C)cc2)CC1 [Compound 1]
pAMPK/AMPK (%) (25 μM): 70.10%
pAMPK/AMPK (%) (50 μM): 63.92%

SMILES: CCOc1ccccc1C(=O)N1CCC(NC(=O)OCc2ccc([N+](=O)[O-])cc2)CC1 [Compound 23]
pAMPK/AMPK (%) (25 μM): 51.41%
pAMPK/AMPK (%) (50 μM): 49.81%

Source: patent publication US20170298051A1, “ACTIVATOR OF ADIPONECTIN RECEPTOR” (THE UNIVERSITY OF TOKYO, priority 2013, published 2017)
